From patent US5070210A, “Novel ketenimines as intermediates for insecticides” (ICI Americas Inc., priority 1990, dated 1991)

Experiments:
Format in all cases: in vivo
[1] = system: Housefly [Musca domestica]; assay: Housefly insecticidal test; conditions: μg per 25 female flies; mortality after 48 hours
Description: (§1) The compounds in Tables 1 and 2 above were tested for insecticidal activity using the following testing procedures. LC50 values, based on the results of these tests and calculated according to dosage-mortality curves, are expressed in Table 3.
Housefly [Musca domestica]:
Test compounds were diluted in acetone and aliquots pipetted onto the bottom of aluminum dishes. To ensure even spreading of the chemical on the bottom of the dishes, 1 ml of acetone containing 0.01% peanut oil was also added to each dish. After all solvents had evaporated, the dishes were placed in circular cardboard cages containing 25 female houseflies, 1-2 days old. The cages were covered on the bottom with cellophane and on the top with tulle netting, and each contained a sugar-water saturated cotton plug for maintenance of the flies. Mortality was recorded after 48 hours. Test levels ranged from 100 μg/25 female houseflies downward. The LC-50 value is expressed below in Table 3 under the heading "HF", in terms of μg of the test compound per 25 female flies.

[2] = system: Cabbage Looper [Trichoplusia ni (Hubner)]; assay: Cabbage looper insecticidal test; conditions: second-instar larvae, percent in solution; 3-5 days
Description: as §1
Cabbage Looper [Trichoplusia ni (Hubner)]:
Test compounds were diluted in a 50-50 acetone-water solution. Cotyledons of hyzini squash (Calabacita abobrinha), approximately 1×1.5 inches, were immersed in the test solutions for 2-3 seconds and placed on a wire screen to dry. The dried leaves were placed in petri dishes containing a moistened piece of filter paper and infested with 5 second-instar cabbage looper larvae. The dishes were placed in a high humidity chamber. Mortality of the larvae was recorded 3-5 days later. Test concentrations ranged from 0.1% downward. The LC-50 value is expressed below in Table 3 under the heading "CL" in terms of percent of the test compound in solution.

[3] = system: Tobacco Budworm [Heliothis virescens (Fabricius)] eggs; assay: Tobacco budworm egg test; conditions: 2-day old eggs, percent in solution
Description: as §1
Tobacco Budworm [Heliothis virescens (Fabricius)]:
(b). Eggs: Paper towel patches of 2-day old eggs of the tobacco budworm were dipped in acetone solutions of the test compound and placed in petri dishes containing a portion of larval rearing medium. Treated eggs were maintained at 78° F. and mortality was recorded after all control eggs had hatched and the young larvae were feeding on the media. Test concentrations ranged from 0.1% downward. The LC-50 value is expressed below in Table 3 under the heading "TBW-E" in terms of percent of the test compound in the solution.

With `CC(C)(C)C(=Nc1cccc(Cl)c1)OCc1cccc(Oc2ccccc2)c1` [Compound 12] the “LC50, HF” value [1] was over 100 µg, the “LC50, CL” value [2] was 0.008% and the “LC50, TBW, E (TBW-E)” value [3] was over 0.1%.
`CC1CC1C(=Nc1ccc(Cl)cc1)OCc1cccc(Oc2ccccc2)c1` (stereo not shown) [Compound 15] was tested, and the “LC50, HF” value [1] was over 100 µg, the “LC50, CL” value [2] was 0.025% and the “LC50, TBW, E (TBW-E)” value [3] was over 0.1%.
With `CC(C)C(=Nc1cc(Cl)c(Cl)cc1Cl)OCc1cccc(Oc2ccccc2)c1` [Compound 18] the “LC50, HF” value [1] was over 100 µg, the “LC50, CL” value [2] was 0.008% and the “LC50, TBW, E (TBW-E)” value [3] was 0.09%.
`CC(C)C(=Nc1c(Cl)cc(Cl)cc1Cl)OCc1cccc(Oc2ccccc2)c1` [Compound 19] was tested, and the “LC50, HF” value [1] was over 100 µg, the “LC50, CL” value [2] was under 0.1% and the “LC50, TBW, E (TBW-E)” value [3] was over 0.1%.
For `COC(C)C(=Nc1ccc(Cl)cc1)OCc1cccc(Oc2ccccc2)c1` (stereo not shown) [Compound 22], the “LC50, HF” value [1] was 15 µg, the “LC50, CL” value [2] was 0.004% and the “LC50, TBW, E (TBW-E)” value [3] was 0.08%.
With `Clc1cccc(N=C(OCc2cccc(Oc3ccccc3)c2)C2CC2)c1` [Compound 24] the “LC50, HF” value [1] was 25 µg, the “LC50, CL” value [2] was 0.005% and the “LC50, TBW, E (TBW-E)” value [3] was 0.1%.
In the case of `CCC(C)C(=Nc1ccc(Cl)cc1)OCc1cccc(Oc2ccccc2)c1` (stereo not shown) [Compound 26], the “LC50, HF” value [1] was over 100 µg, the “LC50, CL” value [2] was 0.007% and the “LC50, TBW, E (TBW-E)” value [3] was over 0.1%.
In the case of `CC(Cl)C(=Nc1ccc(Cl)c(Cl)c1)OCc1cccc(Oc2ccccc2)c1` (stereo not shown) [Compound 27], the “LC50, HF” value [1] was over 100 µg, the “LC50, CL” value [2] was 0.04% and the “LC50, TBW, E (TBW-E)” value [3] was over 0.1%.
For `CCC(=Nc1cccc(Cl)c1Cl)OCc1cccc(Oc2ccccc2)c1` [Compound 28], the “LC50, HF” value [1] was over 100 µg, the “LC50, CL” value [2] was 0.009% and the “LC50, TBW, E (TBW-E)” value [3] was over 0.1%.
For `CCC(=Nc1ccc(Cl)c(Cl)c1)OCc1cccc(Oc2ccccc2)c1` [Compound 36], the “LC50, HF” value [1] was 20 µg, the “LC50, CL” value [2] was 0.024% and the “LC50, TBW, E (TBW-E)” value [3] was over 0.1%.
In the case of `CCCC(=Nc1ccc(Cl)c(Cl)c1)OCc1cccc(Oc2ccccc2)c1` [Compound 38], the “LC50, HF” value [1] was 33 µg, the “LC50, CL” value [2] was 0.006% and the “LC50, TBW, E (TBW-E)” value [3] was 0.05%.
For `CCC(C)C(=Nc1ccc(Cl)c(Cl)c1)OCc1cccc(Oc2ccccc2)c1` (stereo not shown) [Compound 39], the “LC50, HF” value [1] was over 100 µg, the “LC50, CL” value [2] was 0.0023% and the “LC50, TBW, E (TBW-E)” value [3] was over 0.1%.
`CC(C)C(=Nc1ccc(Cl)c(Cl)c1)OCc1cccc(Oc2cccc(F)c2)c1` [Compound 40] was tested, and the “LC50, HF” value [1] was 36 µg, the “LC50, CL” value [2] was 0.0025% and the “LC50, TBW, E (TBW-E)” value [3] was 0.08%.
For `CC(C)(C)C(=Nc1ccc(F)cc1)OCc1cccc(Oc2ccccc2)c1` [Compound 48], the “LC50, HF” value [1] was over 100 µg, the “LC50, CL” value [2] was 0.03% and the “LC50, TBW, E (TBW-E)” value [3] was over 0.05%.
`CC(C)C(=Nc1cc(F)ccc1F)OCc1cccc(Oc2ccccc2)c1` [Compound 56] was tested, and the “LC50, HF” value [1] was 91 µg, the “LC50, CL” value [2] was 0.01% and the “LC50, TBW, E (TBW-E)” value [3] was over 0.05%.
For `CC(C)C(=Nc1cc(F)c(F)cc1F)OCc1cccc(Oc2ccccc2)c1` [Compound 58], the “LC50, HF” value [1] was 16 µg, the “LC50, CL” value [2] was 0.002% and the “LC50, TBW, E (TBW-E)” value [3] was 0.06%.
For `CCC(=Nc1ccc(F)cc1F)OCc1cccc(Oc2ccccc2)c1` [Compound 59], the “LC50, HF” value [1] was 25 µg, the “LC50, CL” value [2] was 0.02% and the “LC50, TBW, E (TBW-E)” value [3] was over 0.1%.
In the case of `COc1cc(N=C(OCc2cccc(Oc3ccccc3)c2)C(C)C)cc(C(F)(F)F)c1` [Compound 76], the “LC50, HF” value [1] was 20 µg, the “LC50, CL” value [2] was 0.002% and the “LC50, TBW, E (TBW-E)” value [3] was 0.05%.
`CC(C)C(=Nc1cc(C(F)(F)F)cc(C(F)(F)F)c1)OCc1cccc(Oc2ccccc2)c1` [Compound 78] was tested, and the “LC50, HF” value [1] was over 100 µg, the “LC50, CL” value [2] was 0.0025% and the “LC50, TBW, E (TBW-E)” value [3] was over 0.1%.
With `CC(C)C(=Nc1ccc(Br)cc1F)OCc1cccc(Oc2ccccc2)c1` [Compound 79] the “LC50, HF” value [1] was 6 µg, the “LC50, CL” value [2] was 0.003% and the “LC50, TBW, E (TBW-E)” value [3] was 0.05%.
`CC(C)C(=Nc1cc(C(F)(F)F)ccc1F)OCc1cccc(Oc2ccccc2)c1` [Compound 84] was tested, and the “LC50, HF” value [1] was 93 µg, the “LC50, CL” value [2] was 0.006% and the “LC50, TBW, E (TBW-E)” value [3] was 0.1%.
`FC(F)(F)c1cccc(N=C(OCc2cccc(Oc3ccccc3)c2)C2CC2)c1` [Compound 86] was tested, and the “LC50, HF” value [1] was 65 µg, the “LC50, CL” value [2] was 0.013% and the “LC50, TBW, E (TBW-E)” value [3] was over 0.1%.
`Cc1cc(N=C(OCc2cccc(Oc3ccccc3)c2)C(C)C)ccc1F` [Compound 87] was tested, and the “LC50, HF” value [1] was 5 µg, the “LC50, CL” value [2] was 0.004% and the “LC50, TBW, E (TBW-E)” value [3] was 0.03%.
For `Cc1ccc(Cl)c(N=C(OCc2cccc(Oc3ccccc3)c2)C(C)C)c1` [Compound 93], the “LC50, HF” value [1] was 64 µg, the “LC50, CL” value [2] was 0.005% and the “LC50, TBW, E (TBW-E)” value [3] was over 0.1%.
In the case of `Cc1ccc(N=C(OCc2cccc(Oc3ccccc3)c2)C(C)C)c(Cl)c1` [Compound 94], the “LC50, HF” value [1] was 44 µg, the “LC50, CL” value [2] was 0.0045% and the “LC50, TBW, E (TBW-E)” value [3] was 0.075%.
In the case of `COc1cc(N=C(OCc2cccc(Oc3ccccc3)c2)C(C)C)c(OC)cc1Cl` [Compound 99], the “LC50, HF” value [1] was over 100 µg, the “LC50, CL” value [2] was 0.016% and the “LC50, TBW, E (TBW-E)” value [3] was over 0.1%.
In the case of `COc1ccc(OC)c(N=C(OCc2cccc(Oc3ccccc3)c2)C(C)C)c1Cl` [Compound 100], the “LC50, HF” value [1] was 100 µg, the “LC50, CL” value [2] was 0.05% and the “LC50, TBW, E (TBW-E)” value [3] was over 0.1%.
In the case of `CCSc1ccc(N=C(OCc2cccc(Oc3ccccc3)c2)C(C)C)cc1Cl` [Compound 103], the “LC50, HF” value [1] was over 100 µg, the “LC50, CL” value [2] was 0.015% and the “LC50, TBW, E (TBW-E)” value [3] was over 0.1%.
In the case of `CCOC(=O)c1ccc(N=C(OCc2cccc(Oc3ccccc3)c2)C(C)C)cc1Cl` [Compound 104], the “LC50, HF” value [1] was over 100 µg, the “LC50, CL” value [2] was 0.004% and the “LC50, TBW, E (TBW-E)” value [3] was over 0.1%.
In the case of `CC(C)(C)C(=Nc1ccc(Cl)c([N+](=O)[O-])c1)OCc1cccc(Oc2ccccc2)c1` [Compound 105], the “LC50, HF” value [1] was over 100 µg, the “LC50, CL” value [2] was 0.018% and the “LC50, TBW, E (TBW-E)” value [3] was over 0.1%.
For `CC(C)(C)C(=Nc1ccc(Br)c(Cl)c1)OCc1cccc(Oc2ccccc2)c1` [Compound 106], the “LC50, HF” value [1] was over 100 µg, the “LC50, CL” value [2] was 0.014% and the “LC50, TBW, E (TBW-E)” value [3] was over 0.1%.
With `Cc1ccc(N=C(OCc2cccc(Oc3ccccc3)c2)C(C)(C)C)cc1Cl` [Compound 107] the “LC50, HF” value [1] was over 100 µg, the “LC50, CL” value [2] was 0.007% and the “LC50, TBW, E (TBW-E)” value [3] was over 0.1%.
In the case of `Cc1cc(Cl)ccc1N=C(OCc1cccc(Oc2ccccc2)c1)C(C)(C)C` [Compound 109], the “LC50, HF” value [1] was over 100 µg, the “LC50, CL” value [2] was 0.002% and the “LC50, TBW, E (TBW-E)” value [3] was over 0.1%.
For `COc1ccc(N=C(OCc2cccc(Oc3ccc(F)cc3)c2)C(C)C)cc1Cl` [Compound 110], the “LC50, HF” value [1] was 26 µg, the “LC50, CL” value [2] was 0.007% and the “LC50, TBW, E (TBW-E)” value [3] was 0.04%.
`CC(C)(Cl)C(=Nc1ccc(Cl)c2ccccc12)OCc1cccc(Oc2ccccc2)c1` [Compound 111] was tested, and the “LC50, HF” value [1] was over 100 µg, the “LC50, CL” value [2] was 0.1% and the “LC50, TBW, E (TBW-E)” value [3] was over 0.1%.
`CC(C)C(=Nc1cccc(Oc2ccccn2)c1)OCc1cccc(Oc2ccccc2)c1` [Compound 114] was tested, and the “LC50, HF” value [1] was 92 µg and the “LC50, CL” value [2] was under 0.1%.
`FC(F)(F)c1ccc(Oc2ccc(COC(=Nc3ccc(Cl)cc3)C(Cl)Cl)cc2)nc1` [Compound 453] was tested, and the “LC50, HF” value [1] was over 100 µg and the “LC50, CL” value [2] was 0.1%.
With `CC(C)C(=Nc1ccc(F)c(Cl)c1)OC(F)c1cccc(Oc2ccc(F)cc2)c1` (stereo not shown) [Compound 502] the “LC50, HF” value [1] was 80 µg.
In the case of `CC(C)C(=Nc1ccc(OC(F)(F)F)cc1)OCc1cccc(Cc2ccccc2)c1` [Compound 542], the “LC50, HF” value [1] was over 100 µg and the “LC50, CL” value [2] was over 0.01%.
